Values of other authors in US8569271B2 (Laboratorios del Dr. Esteve, S.A., priority 2009, dated 2013).

- solubility in water: only slightly soluble in water
Structure (SMILES): Cc1ccc(-c2cc(C(F)(F)F)nn2-c2ccc(S(N)(=O)=O)cc2)cc1 [celecoxib, 4-[5-(4-methylphenyl)-3-(trifluoromethyl)-pyrazol-1-yl]-benzenesulfonamide]
